Tests used:
[1] = target: PPARγ (Homo sapiens (Human), UniProt P37231); test: Transcriptional activation assay in COS7 cells, PPARγ; assay type: cell-based; details: PPRE luciferase reporter, PD151 and PD152 at 10 μM
Method: (§1) COS-7 were cultured in 6-well plates and co-transfected with either a luciferase reporter driven by 3 copies of a PPRE and expression vector for either PPARδ, PPARα or PPARγ together with a vector harboring cDNA for β-galactosidase, serving as a transfection control. To test whether FABP4 or FABP5 mediate activation of their cognate receptors PPARγ and PPARδ, respectively, cells were also co-transfected with a plasmid harboring sequence of either FABP4 or FABP5. 18 h post-transfection, cells were placed in a serum-free medium and treated with agonist/compound. 18 h. later, cells were lysed, luciferase activity was assayed (Promega, WI, USA) and corrected for transfection efficiency by the activity of β-galactosidase.
(§2) Transcriptional activation assays were carried out utilizing COS7 cells as described above.

[2] = target: FABP3 (Homo sapiens (Human), UniProt P05413); test: Fluorescence (ANS) competition binding assay, FABP3; details: ANS displacement
Method: (§3) This example illustrates a two-step fluorescence binding assay study used to determine the binding affinity of the various inhibitor compounds disclosed herein with the various FABPs: FABP3, FABP4, FABP5 and FABP7. Further secondary screening studies were carried out for compounds with high binding affinities toward the FABPs and based on their ability to activate the nuclear receptors PPARα, PPARγ, or PPARδ.
(§4) Binding assays for FABP3, FABP4, FABP5 and FABP7 were carried out by fluorescence titrations. His-tagged FABPs were bacterially expressed in E. coli, purified using Ni Sepharose beads, and the equilibrium dissociation constants (Kd) that characterize their interactions with different inhibitor compounds were measured by fluorescence competition assays. The method entails two steps as described in e.g., Lin, Q. et al., “Ligand selectivity of the peroxisome proliferator-activated receptor alpha,” Biochemistry 38, 185-190, doi:10.1021/bi9816094 [pii](1999). In the first step, Kd for the association of the protein with the fluorescent fatty acid probe ANS was measured. Protein (2 μM) was titrated with ANS from a concentrated solution in DMSO. Ligand binding was monitored by following the increase in the fluorescence of the ligand upon binding to the protein, and Kd for the association of ANS with the each FABP was computed from titration curves as described in e.g., Norris, A. W. & Li, E., “Fluorometric titration of the CRABPs,” Methods Mol Biol 89, 123-139 (1998)). In the second step, Kds for binding of non-fluorescent ligands were measured by monitoring their ability to displace ANS in the binding pocket of the protein. Each FABP was precomplexed with ANS at 1:1 molar ratio and titrated with the different compounds whose binding was reflected by a decrease in probe fluorescence. Kds were extracted from the EC50 of the competition curve and the measured Kd for ANS.

[3] = target: FABP4 (Homo sapiens (Human), UniProt P15090); test: Fluorescence (ANS) competition binding assay, FABP4; details: ANS displacement
Method: as §3, §4

[4] = target: PPARδ (Homo sapiens (Human), UniProt Q03181); test: Transcriptional activation assay in COS7 cells, PPARδ; assay type: cell-based; details: PPRE luciferase reporter, PD151 and PD152 at 10 μM
Method: as §1, §2

[5] = target: PPARα (Homo sapiens (Human), UniProt Q07869); test: Transcriptional activation assay in COS7 cells, PPARα; assay type: cell-based; details: PPRE luciferase reporter, PD151 and PD152 at 10 μM
Method: as §1, §2

[6] = target: FABP5 (Homo sapiens (Human), UniProt Q01469); test: Fluorescence (ANS) competition binding assay, FABP5; details: ANS displacement
Method: as §3, §4

[7] = target: FABP7 (Homo sapiens (Human), UniProt O15540); test: Fluorescence (ANS) competition binding assay, FABP7; details: ANS displacement
Method: as §3, §4

[8] = test system: Salmonella typhimurium tester strain TA1535; test: Ames test (Bacterial Reverse Mutation Test), TA1535; assay type: cell-based
Method: (§5) PD152 (compound 2) was tested for genotoxic and cytotoxic side effects by Ames test. The Ames test is a Bacterial Reverse Mutation Test of mutagenicity that utilizes Salmonella typhimurium tester strains TA98, TA100, TA1535, TA1537 and Escherichia coli tester strain WP2 uvrA (pKM101), both in the presence and absence of S9.
(§6) The compound PD152 was tested at 10 concentrations (0.032-1000 μg/plate) in the presence of, or absence of, the hepatic enzyme S9.
(§7) The aniline FABP4/5 inhibitor compound, 2-((2-((2,4-dichloro-5-isopropoxyphenyl)amino)-2-oxoethyl)thio)-2-methylpropanoic acid (compound “B104” as disclosed in WO2023043803A1) also was tested for genotoxic and cytotoxic side effects by Ames test. B104 was tested using the Salmonella typhimurium tester stains TA98, TA100, TA1535, and TA1537, both in the presence and absence of the hepatic enzyme S9, at 5 concentrations (1.5-64 μg/plate).

[9] = test system: Salmonella typhimurium tester strains TA98, TA100, TA1535, TA1537 and Escherichia coli tester strain WP2 uvrA (pKM101); test: Ames test, overall conclusion for the tested strains; assay type: cell-based; details: presence and absence of S9
Method: as §5, §6, §7

[10] = test system: Salmonella typhimurium tester strain TA98; test: Ames test (Bacterial Reverse Mutation Test), TA98; assay type: cell-based
Method: as §5, §6
(§8) The aniline FABP4/5 inhibitor compound, 2-((2-((2,4-dichloro-5-isopropoxyphenyl)amino)-2-oxoethyl)thio)-2-methylpropanoic acid (compound “B104” as disclosed in WO2023043803A1) also was tested for genotoxic and cytotoxic side effects by Ames test. […]

[11] = test system: Salmonella typhimurium tester strain TA100; test: Ames test (Bacterial Reverse Mutation Test), TA100; assay type: cell-based
Method: as §5, §6, §7

[12] = test system: Salmonella typhimurium tester strain TA1537; test: Ames test (Bacterial Reverse Mutation Test), TA1537; assay type: cell-based
Method: as §5, §6, §8

[13] = TA1535, absence of S9, 1.5 μg/well
[14] = TA1535, absence of S9, 4 μg/well
[15] = TA1535, absence of S9, 10 μg/well
[16] = TA1535, absence of S9, 25 μg/well
[17] = TA1535, absence of S9, 64 μg/well
[18] = TA1535, presence of S9, 1.5 μg/well
[19] = TA1535, presence of S9, 4 μg/well
[20] = TA1535, presence of S9, 10 μg/well
[21] = TA1535, presence of S9, 25 μg/well
[22] = TA1535, presence of S9, 64 μg/well
[23] = TA98, absence of S9, 1.5 μg/well
[24] = TA98, absence of S9, 10 μg/well
[25] = TA98, absence of S9, 25 μg/well
[26] = TA98, absence of S9, 64 μg/well
[27] = TA98, presence of S9, 1.5 μg/well
[28] = TA98, presence of S9, 4 μg/well
[29] = TA98, presence of S9, 10 μg/well
[30] = TA98, presence of S9, 25 μg/well
[31] = TA98, presence of S9, 64 μg/well
[32] = TA100, absence of S9, 1.5 μg/well
[33] = TA100, absence of S9, 4 μg/well
[34] = TA100, absence of S9, 10 μg/well
[35] = TA100, absence of S9, 25 μg/well
[36] = TA100, absence of S9, 64 μg/well
[37] = TA100, presence of S9, 1.5 μg/well
[38] = TA100, presence of S9, 4 μg/well
[39] = TA100, presence of S9, 10 μg/well
[40] = TA100, presence of S9, 25 μg/well
[41] = TA100, presence of S9, 64 μg/well
[42] = TA1537, absence of S9, 1.5 μg/well
[43] = TA1537, absence of S9, 4 μg/well
[44] = TA1537, absence of S9, 10 μg/well
[45] = TA1537, absence of S9, 25 μg/well
[46] = TA1537, absence of S9, 64 μg/well
[47] = TA1537, presence of S9, 1.5 μg/well
[48] = TA1537, presence of S9, 4 μg/well
[49] = TA1537, presence of S9, 10 μg/well
[50] = TA1537, presence of S9, 25 μg/well
[51] = TA1537, presence of S9, 64 μg/well

Chain of FABP4 (P15090 whole entry, species assumed): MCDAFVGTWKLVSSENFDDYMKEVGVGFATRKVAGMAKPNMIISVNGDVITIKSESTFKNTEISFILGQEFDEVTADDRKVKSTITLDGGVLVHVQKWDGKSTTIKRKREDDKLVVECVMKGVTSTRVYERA
Chain of FABP5 (Q01469 whole entry, species assumed): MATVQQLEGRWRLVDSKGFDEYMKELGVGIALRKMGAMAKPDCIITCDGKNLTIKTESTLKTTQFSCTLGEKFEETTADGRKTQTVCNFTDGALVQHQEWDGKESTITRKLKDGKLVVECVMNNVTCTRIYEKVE
Chain of FABP7 (O15540 whole entry, species assumed): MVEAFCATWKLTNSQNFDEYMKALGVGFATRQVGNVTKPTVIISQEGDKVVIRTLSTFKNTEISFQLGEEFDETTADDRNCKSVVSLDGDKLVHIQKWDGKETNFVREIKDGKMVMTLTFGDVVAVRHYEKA
Chain of FABP3 (P05413 whole entry, species assumed): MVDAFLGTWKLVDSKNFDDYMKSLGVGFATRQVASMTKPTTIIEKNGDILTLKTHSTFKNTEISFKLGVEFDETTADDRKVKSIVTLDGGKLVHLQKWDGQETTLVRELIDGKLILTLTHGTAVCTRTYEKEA
Chain of PPARγ (P37231 whole entry, species assumed): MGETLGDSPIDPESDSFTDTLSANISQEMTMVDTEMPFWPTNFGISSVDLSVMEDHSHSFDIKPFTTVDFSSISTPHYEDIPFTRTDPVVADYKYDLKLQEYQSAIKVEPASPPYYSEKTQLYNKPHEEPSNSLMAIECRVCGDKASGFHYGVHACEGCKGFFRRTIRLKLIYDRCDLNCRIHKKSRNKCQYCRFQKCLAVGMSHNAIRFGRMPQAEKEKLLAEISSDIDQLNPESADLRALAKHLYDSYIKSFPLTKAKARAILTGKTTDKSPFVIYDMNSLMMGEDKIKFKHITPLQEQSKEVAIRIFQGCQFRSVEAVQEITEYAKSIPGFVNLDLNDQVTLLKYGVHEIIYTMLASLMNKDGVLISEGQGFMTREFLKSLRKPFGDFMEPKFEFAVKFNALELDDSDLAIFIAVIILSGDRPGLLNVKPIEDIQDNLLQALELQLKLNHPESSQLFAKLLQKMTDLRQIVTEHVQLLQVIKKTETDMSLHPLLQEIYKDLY
Chain of PPARα (Q07869 whole entry, species assumed): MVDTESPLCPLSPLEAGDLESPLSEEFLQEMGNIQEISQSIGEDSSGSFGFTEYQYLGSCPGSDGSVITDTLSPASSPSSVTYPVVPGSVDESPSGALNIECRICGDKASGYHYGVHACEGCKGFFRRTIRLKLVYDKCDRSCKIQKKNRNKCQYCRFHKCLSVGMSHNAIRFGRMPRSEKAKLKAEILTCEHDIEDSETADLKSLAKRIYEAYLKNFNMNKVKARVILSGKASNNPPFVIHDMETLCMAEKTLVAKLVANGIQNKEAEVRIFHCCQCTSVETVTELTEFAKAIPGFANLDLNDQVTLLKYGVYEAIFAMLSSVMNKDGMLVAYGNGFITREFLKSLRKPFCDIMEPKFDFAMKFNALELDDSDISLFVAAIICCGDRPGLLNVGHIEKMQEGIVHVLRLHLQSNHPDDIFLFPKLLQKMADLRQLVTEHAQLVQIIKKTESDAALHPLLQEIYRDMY
Chain of PPARδ (Q03181 whole entry, species assumed): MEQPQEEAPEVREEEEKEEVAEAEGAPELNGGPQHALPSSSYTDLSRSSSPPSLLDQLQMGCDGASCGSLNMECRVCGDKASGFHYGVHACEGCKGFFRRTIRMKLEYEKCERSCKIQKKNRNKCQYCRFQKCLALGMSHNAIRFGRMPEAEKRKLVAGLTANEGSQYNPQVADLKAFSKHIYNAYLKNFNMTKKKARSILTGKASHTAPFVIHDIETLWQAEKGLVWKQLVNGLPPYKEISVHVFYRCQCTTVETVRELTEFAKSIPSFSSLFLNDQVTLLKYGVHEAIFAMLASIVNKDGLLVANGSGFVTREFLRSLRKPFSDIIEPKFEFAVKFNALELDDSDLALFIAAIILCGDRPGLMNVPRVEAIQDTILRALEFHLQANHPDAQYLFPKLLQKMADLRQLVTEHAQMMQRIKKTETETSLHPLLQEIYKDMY

For `CC(C)Oc1ccc(Cl)c(NC(=O)CSCC(=O)O)n1` [PD152.2, 2-((2-((3-chloro-6-isopropoxypyridin-2-yl)amino)-2-oxoethyl)thio)acetic acid], the “Activation of transcription by PPARγ” value [1] was “None of these tested compounds activated”, the Kd [2] was 0.125 µM and the Kd [3] was 0.072 µM. For the same compound, the “Activation of transcription by PPARδ” value [4] was “None of these tested compounds activated”, the “Activation of transcription by PPARα” value [5] was “None of these tested compounds activated” and the Kd [6] was 0.141 µM. The Kd [7] was 1 µM.

With `CC(C)Oc1cc(NC(=O)CSC(C)(C)C(=O)O)c(Cl)cc1Cl` [Compound B104, 2-((2-((2,4-dichloro-5-isopropoxyphenyl)amino)-2-oxoethyl)thio)-2-methylpropanoic acid, reference compound] the Fold increase [8, 13] was 1.20, the “Mean number of revertants” value [8, 13] was 4 and the Fold increase [8, 14] was 2.20. The “Mean number of revertants” value [8, 14] was 7.33, the Fold increase [8, 15] was 1.40 and the “Mean number of revertants” value [8, 15] was 4.67. For the same compound, the Fold increase [8, 16] was 0.20, the “Mean number of revertants” value [8, 16] was 0.67 and the Fold increase [8, 17] was 0. For the same compound, the “Mean number of revertants” value [8, 17] was 0, the Fold increase [8, 18] was 0.89 and the “Mean number of revertants” value [8, 18] was 5.67. The Fold increase [8, 19] was 1, the “Mean number of revertants” value [8, 19] was 6.33 and the Fold increase [8, 20] was 1.06. For the same compound, the “Mean number of revertants” value [8, 20] was 6.67, the Fold increase [8, 21] was 1.68 and the “Mean number of revertants” value [8, 21] was 10.67. For the same compound, the Fold increase [8, 22] was 1, the “Mean number of revertants” value [8, 22] was 6.33 and the “Cytotoxicity to the tested strains” value [9] was “some level of cytotoxicity”. The “Mutagenicity in the Ames test” value [9] was “positive mutagenic responses”, the Fold increase [10, 23] was 1.26 and the “Mean number of revertants” value [10, 23] was 16. The Fold increase ([10]; TA98, absence of S9, 4 μg/well) was 0.84, the “Mean number of revertants” value ([10]; TA98, absence of S9, 4 μg/well) was 10.67 and the Fold increase [10, 24] was 0.97. For the same compound, the “Mean number of revertants” value [10, 24] was 12.33, the Fold increase [10, 25] was 0 and the “Mean number of revertants” value [10, 25] was 0.33. For the same compound, the Fold increase [10, 26] was 0, the “Mean number of revertants” value [10, 26] was 0.66 and the Fold increase [10, 27] was 1.2. For the same compound, the “Mean number of revertants” value [10, 27] was 20.67, the Fold increase [10, 28] was 2.3 and the “Mean number of revertants” value [10, 28] was 39. The Fold increase [10, 29] was 2.88, the “Mean number of revertants” value [10, 29] was 49 and the Fold increase [10, 30] was 2.7. For the same compound, the “Mean number of revertants” value [10, 30] was 47.67, the Fold increase [10, 31] was 1.5 and the “Mean number of revertants” value [10, 31] was 26. For the same compound, the Fold increase [11, 32] was 0.8, the “Mean number of revertants” value [11, 32] was 52 and the Fold increase [11, 33] was 1.05. The “Mean number of revertants” value [11, 33] was 68, the Fold increase [11, 34] was 0.86 and the “Mean number of revertants” value [11, 34] was 56. For the same compound, the Fold increase [11, 35] was 0, the “Mean number of revertants” value [11, 35] was 0 and the Fold increase [11, 36] was 0. The “Mean number of revertants” value [11, 36] was 0.67, the Fold increase [11, 37] was 3 and the “Mean number of revertants” value [11, 37] was 387. For the same compound, the Fold increase [11, 38] was 5.18, the “Mean number of revertants” value [11, 38] was 658 and the Fold increase [11, 39] was 6.68. For the same compound, the “Mean number of revertants” value [11, 39] was 849, the Fold increase [11, 40] was 6.55 and the “Mean number of revertants” value [11, 40] was 833. The Fold increase [11, 41] was 4.44, the “Mean number of revertants” value [11, 41] was 564.5 and the Fold increase [12, 42] was 0.43. The “Mean number of revertants” value [12, 42] was 2.0, the Fold increase [12, 43] was 0.32 and the “Mean number of revertants” value [12, 43] was 1.5. For the same compound, the Fold increase [12, 44] was 0.21, the “Mean number of revertants” value [12, 44] was 1.0 and the Fold increase [12, 45] was 0. The “Mean number of revertants” value [12, 45] was 0, the Fold increase [12, 46] was 0 and the “Mean number of revertants” value [12, 46] was 0. The Fold increase [12, 47] was 1.71, the “Mean number of revertants” value [12, 47] was 4.0 and the Fold increase [12, 48] was 2.36. The “Mean number of revertants” value [12, 48] was 5.5, the Fold increase [12, 49] was 1.29 and the “Mean number of revertants” value [12, 49] was 3.0. For the same compound, the Fold increase [12, 50] was 1.07, the “Mean number of revertants” value [12, 50] was 2.5 and the Fold increase [12, 51] was 2.14. For the same compound, the “Mean number of revertants” value [12, 51] was 5.0.

Work on `CC(C)Oc1nc(NC(=O)COCC(=O)O)c(Cl)cc1Cl` [PD155, 2-(2-((3,5-dichloro-6-isopropoxypyridin-2-yl)amino)-2-oxoethoxy)acetic acid] yielded a Kd [2] of 0.117 µM, a Kd [3] of 0.079 µM and a Kd [6] of 0.059 µM. It also gave a Kd [7] of 0.108 µM.
